We go through 17 compounds from patent publication US11976083B2, “Inhibitors of peptidylarginine deiminases” (Gilead Sciences, Inc., priority 2020, dated 2024).

For the assay, the target named is T1, human PAD4 (Homo sapiens, UniProt Q9UM07).
T1 construct: human PAD4 (NM_012387), A2-P663, was PCR amplified; His-SUMO (N, cleaved yes); made in house; host or cells: E. coli BL21(DE3)
Briefly: In vitro PAD4 BAEE biochemical assay. The conditions noted are these: BAEE substrate 3 mM, 5 nM PAD4, 2 mM calcium chloride; geometric mean of multiple experiments. The procedure, abridged:
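Assay was run at 25 °C using 3 mM BAEE and 5 nM human PAD4 after a 30 min compound preincubation; ammonia produced over 2 h was quantified by OPA-derived fluorescence. Full inhibition was defined by 50 µM BB-Cl-Amidine, and IC50 came from variable-slope nonlinear regression.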

The structures appear in SMILES notation.

T1 sequence (Q9UM07 2-663): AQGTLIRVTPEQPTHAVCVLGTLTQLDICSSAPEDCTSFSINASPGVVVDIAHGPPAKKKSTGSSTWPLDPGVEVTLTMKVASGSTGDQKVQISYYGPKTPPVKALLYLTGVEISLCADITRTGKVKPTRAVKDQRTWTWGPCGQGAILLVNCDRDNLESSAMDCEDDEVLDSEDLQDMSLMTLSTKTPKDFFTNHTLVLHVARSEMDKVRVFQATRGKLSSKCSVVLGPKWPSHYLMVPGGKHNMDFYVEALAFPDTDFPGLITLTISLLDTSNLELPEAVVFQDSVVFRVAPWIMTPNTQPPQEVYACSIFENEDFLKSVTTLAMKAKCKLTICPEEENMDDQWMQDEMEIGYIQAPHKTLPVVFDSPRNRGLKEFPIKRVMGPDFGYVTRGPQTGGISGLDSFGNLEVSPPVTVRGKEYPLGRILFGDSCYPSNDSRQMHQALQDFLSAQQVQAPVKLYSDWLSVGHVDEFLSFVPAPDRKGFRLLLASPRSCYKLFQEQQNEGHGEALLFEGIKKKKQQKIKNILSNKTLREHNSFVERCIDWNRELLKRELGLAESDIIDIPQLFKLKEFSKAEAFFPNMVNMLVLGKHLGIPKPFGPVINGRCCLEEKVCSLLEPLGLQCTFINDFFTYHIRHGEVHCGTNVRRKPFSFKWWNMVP

Turning to `COc1cc(C(=O)N2CCC[C@@H](N)C2)cc2nc(-c3cc4ccc5nc4n3C[C@@H]3C[C@H]3CCCC(C)(C)C(=O)N[C@@H]5C)n(C)c12` [Example 274, (3˜{R},5˜{R},12˜{R})-18-[5-[(3˜{R})-3-aminopiperidine-1-carbonyl]-7-methoxy-1-methyl-benzimidazol-2-yl]-9,9,12-trimethyl-1,11,20-triazatetracyclo[11.5.2.0^{3,5}.0^{16,19}]icosa-13(20),14,16(19),17-tetraen-10-one], the IC50 was 104 nM.

As for `COc1cc(C(=O)N2CC[C@@H](OC)[C@@H](N)C2)cc2nc(-c3cc4ccc5nc4n3CC(F)(F)CCCC[C@](C)(C(F)(F)F)C(=O)N[C@@H]5C)n(C)c12` [Example 733, (8~{S},11~{R})-17-[5-[(3~ {S},4~{R})-3-amino-4-methoxy-piperidine-1-carbonyl]-7-methoxy-1-methyl-benzimidazol-2-yl]-3,3-difluoro-8,11-dimethyl-8-(trifluoromethyl)-1,10,19-triazatricyclo[10.5.2.0^ {15,18}]nonadeca-12(19),13,15(18),16-tetraen-9-one], the IC50 was 96 nM. Consider `COc1cc(C(=O)N2CC[C@@H](OC)[C@@H](N)C2)cc2nc(-c3cc4ccc5nc4n3CC(F)(F)CCC[C@@H]3C[C@H]3C(=O)N(CC3CC3)[C@@H]5C)n(C)c12` [Example 868, (2~{R},5~{R},7~{R})-14-[5-[(3~{S},4~{R})-3-amino-4-methoxy-piperidine-1-carbonyl]-7-methoxy-1-methyl-benzimidazol-2-yl]-3-(cyclopropylmethyl)-11,11-difluoro-2-methyl-3,13,19-triazatetracyclo[11.5.2.0^ {5,7}.0^{16,20}]icosa-1(19), 14,16(20),17-tetraen-4-one], for which the IC50 was found to be 37 nM. For `COc1cc(C(=O)N2[C@H]3CC[C@@H]2[C@H](N)C3)cc2nc(-c3cc4ccc5nc4n3CCCCCC(C)(C)C(=O)N[C@@H]5C)n(C)c12` [Example 102, (10~{R})-16-[5-[(1~{R},2~{R},4~{S})-2-amino-7-azabicyclo[2.2.1]heptane-7-carbonyl]-7-methoxy-1-methyl-benzimidazol-2-yl]-7,7,10-trimethyl-1,9,18-triazatricyclo[9.5.2.0^{14,17}]octadeca-11(18),12,14(17),15-tetraen-8-one], the IC50 amounted to 45 nM. The result for `CO[C@@H]1CCN(C(=O)c2ccc3c(c2)nc(-c2cc4ccc5nc4n2CCCCCc2cc(Cl)ncc2C(=O)N[C@@H]5C)n3C2CC2)C[C@@H]1N` [Example 652, 17-[5-[(3~{S},4~{R})-3-amino-4-methoxy-piperidine-1-carbonyl]-1-cyclopropyl-benzimidazol-2-yl]-8-chloro-2-methyl-3,7,16,22-tetrazatetracyclo[14.5.2.0^ {5,10}.0^{19,23}] tricosa-1(22),5,7,9,17,19(23), 20-heptaen-4-one] reads 42 nM; that for `COc1cc(C(=O)N2[C@H]3CC[C@@H]2[C@H](N)C3)cc2nc(-c3cc4ccc5nc4n3CCCCCC[C@@H](C)C(=O)N[C@@H]5C)n(C)c12` [Example 136, (8~{R},11~{R})-17-[5-[(1~{R},2~{R},4~{S})-2-amino-7-azabicyclo[2.2.1]heptane-7-carbonyl]-7-methoxy-1-methyl-benzimidazol-2-yl]-8,11-dimethyl-1,10,19-triazatricyclo[10.5.2.0^{15,18}]nonadeca-12(19),13,15(18),16-tetraen-9-one], 40 nM. The result for `COc1cc(C(=O)N2CC[C@@H](OC(F)F)[C@@H](N)C2)cc2nc(-c3cc4ccc5nc4n3CCCCCc3nccnc3C(=O)N[C@@H]5C)n(C)c12` [Example 7, (2~{R})-17-[5-[(3~{S},4~{R})-3-amino-4-(difluoromethoxy)piperidine-1-carbonyl]-7-methoxy-1-methyl-benzimidazol-2-yl]-2-methyl-3,6,9,16,22-pentazatetracyclo[14.5.2.0^{5,10}.0^{19, 23}]tricosa-1(22),5(10),6,8,17,19(23),20-heptaen-4-one] reads 101 nM. For `C[C@@H]1[C@H](N)CCCN1C(=O)c1cc(F)c2c(c1)nc(-c1cc3ccc4nc3n1CCCCCc1nc(C(F)(F)F)ccc1C(=O)N[C@@H]4C)n2C1CC1` [Example 838, (2~{R})-17-[5-[(2~{R}, 3~{R})-3-amino-2-methyl-piperidine-1-carbonyl]-1-cyclopropyl-7-fluoro-benzimidazol-2-yl]-2-methyl-8-(trifluoromethyl)-3,9,16,22-tetrazatetracyclo[14.5.2.0^ {5,10).0^{19,23}] tricosa-1(22),5(10), 6,8,17,19(23),20-heptaen-4-one], the IC50 was found to be 49 nM. Consider `C[C@H]1NC(=O)c2ccc(Cl)nc2CC[C@H]2C[C@@H]2Cn2c(-c3nc4cc(C(=O)N5C[C@H](N)[C@@H]6CC[C@H]5C6)cc(F)c4n3C3CC3)cc3ccc1nc32` [Example 878, (3~{S},5~{S},16~{R})-22-[5-[(1~{S},4~{R},5~{R})-4-amino-2-azabicyclo[3.2.1]octane-2-carbonyl]-1-cyclopropyl-7-fluoro-benzimidazol-2-yl]-10-chloro-16-methyl-1,9,15,24-tetrazapentacyclo [15.5.2.0^{3,5}.0^ {8,13}.0^{20,23}]tetracosa-8(13),9,11,17(24),18,20(23), 21-heptaen-14-one], for which the IC50 is 26 nM.

On to `COc1cc(C(=O)N[C@H]2CNCC[C@@H]2F)cc2nc(-c3cc4ccc5nc4n3CCCCCCC3(CC(F)(F)C3)C(=O)N[C@@H]5C)n(C)c12` [Example 400, 2-[(11~{R})-1′,1′-difluoro-11-methyl-9-oxo-spiro[1,10,19-triazatricyclo[10.5.2.0^{15,18}]nonadeca-12(19),13,15(18),16-tetraene-8,3′-cyclobutane]-17-yl]-~{N}-[(3~{S},4~{S})-4-fluoro-3-piperidyl]-7-methoxy-1-methyl-benzimidazole-5-carboxamide], for which the IC50 turned out to be 150 nM. The result for `COc1cc(C(=O)N2CCC[C@@H](N)C2)cc2nc(-c3cc4ccc5nc4n3CCCC[C@H]3C[C@@H]3C(=O)N[C@@H]5C)n(C)c12` [Example 151, (2~{R},5~{S},7~{S})-13-[5-[(3~{R})-3-aminopiperidine-1-carbonyl]-7-methoxy-1-methyl-benzimidazol-2-yl]-2-methyl-3,12,18-triazatetracyclo[10.5.2.0^{5,7}.0^{15,19}] nonadeca-1(18),13,15(19),16-tetraen-4-one] reads 123 nM; that for `[2H]C([2H])([2H])O[C@@H]1CCN(C(=O)c2cc(F)c3c(c2)nc(-c2cc4ccc5nc4n2CC(F)(F)CCC[C@@H]2C[C@H]2C(=O)N[C@@H]5C)n3C2CC2)C[C@@H]1N` [Example 641, (2~{R},5~{R},7~{R})-14-[5-[(3~{S},4~{R})-3-amino-4-(trideuteriomethoxy)piperidine-1-carbonyl]-1-cyclopropyl-7-fluoro-benzimidazol-2-yl]-11,11-difluoro-2-methyl-3,13,19-triazatetracyclo[11.5.2.0^ {5,7}.0^{16,20}]icosa-1(19),14,16(20),17-tetraen-4-one], 49 nM; that for `COc1nccc2c1C(=O)N[C@H](C)c1ccc3cc(-c4nc5cc(C(=O)N6CC[C@@H](OC)[C@@H](N)C6)cc(OC)c5n4C)n(c3n1)CCCCC2` [Example 863, (2~{R})-17-[5-[(3~{S},4~{R})-3-amino-4-methoxy-piperidine-1-carbonyl]-7-methoxy-1-methyl-benzimidazol-2-yl]-6-methoxy-2-methyl-3,7,16,22-tetrazatetracyclo[14.5.2.0^ {5,10}.0^{19,23}]tricosa-1(22), 5(10),6,8,17,19(23),20-heptaen-4-one], 69 nM. Consider `COc1cc(C(=O)N2CCC[C@@H](N)C2)cc2nc(-c3cc4ccc5cc4n3CCCCCCC(C)(C)C(=O)Nc3ccccc3-5)n(C)c12` [Example 54, 18-[5-[(3~{R})-3-aminopiperidine-1-carbonyl]-7-methoxy-1-methyl-benzimidazol-2-yl]-10,10-dimethyl-8,17-diazatetracyclo[15.5.2.0^{2,7).0^{20,24}] tetracosa-1(23),2,4,6,18,20(24),21-heptaen-9-one], for which the IC50 is 1380 nM. As for `CO[C@@H]1CCN(C(=O)c2cc(F)c3c(c2)nc(-c2cc4ccc5nc4n2CCCCC[C@@H]2CC2C(=O)N[C@@H]5C)n3C)C[C@@H]1N` (some centres unmarked) [Example 512, (2~{R},5~{R},7~ {R})-14-[5-[(3~{S},4~{R})-3-amino-4-methoxy-piperidine-1-carbonyl]-7-fluoro-1-methyl-benzimidazol-2-yl]-2-methyl-3,13,19-triazatetracyclo[11.5.2.0^ {5,7}.0^{16,20}]icosa-1(19),14,16(20),17-tetraen-4-one], the half-inhibitory concentration (IC50) turned out to be 65 nM. The figure for `COCC1(C)CCCCCCn2c(-c3nc4cc(C(=O)N5[C@H]6CC[C@@H]5[C@H](N)C6)cc(OC)c4n3C)cc3ccc(cc32)[C@@H](C)NC1=O` (some centres unmarked) [Example 341, (11~{R})-17-[5-[(1~{R},2~{R},4~{S})-2-amino-7-azabicyclo[2.2.1]heptane-7-carbonyl]-7-methoxy-1-methyl-benzimidazol-2-yl]-8-(methoxymethyl)-8,11-dimethyl-1,10-diazatricyclo[10.5.2.0^{15,18}]nonadeca-12(19),13,15(18),16-tetraen-9-one] is 59 nM.

Take `COc1cc(C(=O)N2CCC[C@@H](N)C2)cc2nc(-c3cc4ccc5nc4n3CCOCCOCCOC5C)n(C)c12` (some centres unmarked) [Example 298, [(3~{R})-3-amino-1-piperidyl]-[7-methoxy-1-methyl-2-(11-methyl-4,7,10-trioxa-1,19-diazatricyclo[10.5.2.0^{15,18}]nonadeca-12(19),13,15(18),16-tetraen-17-yl)benzimidazol-5-yl]methanone]: the IC50 is 914 nM.
